Reference: ChEMBL document CHEMBL1149940, “Conformationally constrained analogues of diacylglycerol. 6. Changes in PK-C binding affinity for 3-O-acyl-2-deoxy-L-ribonolactones bearing different acyl chains” (Bioorg Med Chem Lett, 1994)

Tests used:
[1] = species: Mus musculus; test: Inhibition of [3H]phorbol-12,13-dibutyrate binding to mouse brain protein kinase C at 100 ug/mL
[2] = Logarithm of water solubility was reported; assay type: ADME; details: buffer
[3] = Inhibition of [3H]phorbol-12,13-dibutyrate binding to mouse brain protein kinase C
[4] = Inhibition of [3H]phorbol-12,13-dibutyrate binding to mouse brain protein kinase C (No inhibition at >1700 uM)
[5] = Inhibition of [3H]phorbol-12,13-dibutyrate binding to mouse brain protein kinase C (calculated value from percent inhibition at 100 ug/mL)

Compound | inhibition [1] [%] | log S [2] [M/m3] | Ki [3] [µM] | further results
COc1ccc(C(=O)O[C@H]2CC(=O)O[C@@H]2CO)cc1 | 2 |  |  | 
CCc1ccc(C(=O)O[C@H]2CC(=O)O[C@@H]2CO)cc1 | 21 |  |  | 
O=C1C[C@H](OC(=O)c2ccc3ccccc3c2)[C@@H](CO)O1 | 28 |  |  | 
O=C1C[C@@H](OC(=O)c2cccc3ccccc23)[C@H](CO)O1 |  | -0.18 | 23.5 | 
O=C(Cc1ccccc1)O[C@H]1CC(=O)O[C@@H]1CO | 29 |  |  | 
O=C1C[C@H](OC(=O)c2ccccc2)[C@@H](CO)O1 | 9.5 |  |  | 
CCCCCCCCCCCCCC(=O)O[C@@H]1CC(=O)O[C@H]1CO |  | -2.62 | 2.53 | 
CCCCCCCCCCC(C)CCCCCCC(=O)O[C@@H]1CC(=O)O[C@H]1CO (some centres undefined) |  | -4.9 | 2.39 | 
CCCCCCCCCCCCCCCCCC(=O)O[C@@H]1CC(=O)O[C@H]1CO |  | -4.7 | 8.69 | 
O=C1C[C@H](OC(=O)c2ccc(-c3ccccc3)cc2)[C@@H](CO)O1 | 6.5 |  |  | 
CCCCCCCCCCC(CCCCCCC(=O)O[C@@H]1CC(=O)O[C@H]1CO)c1ccccc1 (some centres undefined) |  | -6.91 | 1.21 | 
CCCCCC(=O)O[C@@H]1CC(=O)O[C@H]1CO |  | 1.54 | 188 | 
CCCCCCCCCC(=O)O[C@@H]1CC(=O)O[C@H]1CO |  | -0.54 | 4.06 | 
CCCCCCCC/C=C/CCCCCCCC(=O)O[C@@H]1CC(=O)O[C@H]1CO |  | -3.9 | 1.33 | 
CC(=O)O[C@@H]1CC(=O)O[C@H]1CO |  | 3.62 |  | Ki [4]: Not Active
CCCCCCCc1ccc(C(=O)O[C@@H]2CC(=O)O[C@H]2CO)cc1 |  | -2.05 | 3.2 | 
CCCCCCCc1ccc(C(=O)O[C@H]2CC(=O)O[C@@H]2CO)cc1 |  |  | 8.9 | 
O=C1C[C@@H](OC(=O)Cc2ccccc2)[C@H](CO)O1 |  | 1.09 |  | Ki [5]: 222 µM
O=C(/C=C/c1ccccc1)O[C@H]1CC(=O)O[C@@H]1CO | 18.5 |  |  | 
CCCCCCCCCCC(CCCC)CCCCCCC(=O)O[C@@H]1CC(=O)O[C@H]1CO (some centres undefined) |  | -6.46 | 2.45 | 
O=C1C[C@H](OC(=O)c2cccc3ccccc23)[C@@H](CO)O1 | 30 |  |  | 
CCCCCCCCCCCCCC(=O)O[C@H]1CC(=O)O[C@@H]1CO |  |  | 5.3 | 
